This note sets out measurements from the NIST ThermoML archive (doi:10.1021/acs.jced.8b00566).

± gives the expanded uncertainty stated by the source.

Data set [1] is described as follows: Molar enthalpy of transition or fusion. The note with it: Crystal; DSC.
For data set [2] the following is noted: Crystal; DSC.

For `CC(=O)O[C@H]1CC[C@@]2(C)C(=CC[C@@H]3[C@@H]2CC[C@]2(C)C(c4cccnc4)=CC[C@@H]32)C1` [abiraterone acetate], in data set [1], the “Molar enthalpy of transition or fusion” value came to 6.17 ± 0.239 kcal/mol. Moreover, the Triple point temperature in data set [2] turned out to be 419.3 ± 0.8 K.

For `C[C@]12CC[C@H](O)CC1=CC[C@@H]1[C@@H]2CC[C@]2(C)C(c3cccnc3)=CC[C@@H]12` [abiraterone], the “Molar enthalpy of transition or fusion” value in data set [1] worked out at 10.8 ± 0.287 kcal/mol. Besides, in data set [2], the Triple point temperature turned out to be 501.4 ± 0.8 K.
